Experimental data: patent US20230271980A1, “PREPARATION AND APPLICATION OF TRICYCLIC PYRIMIDINONE COMPOUND AND ITS COMPOSITION” (NEUSCO BIOTECH LIMITED, priority 2020, published 2023)

Columns and labels:
[1] = target: T1, Recombinant human Lp-PLA2 (Homo sapiens, UniProt Q13093); assay: Recombinant human Lp-PLA2 (rhLp-PLA2) assay (PED6 assay); assay type: biochemical; conditions: PED6 substrate; recombinant human Lp-PLA2 enzyme at 4 nM or 110 pM; 30 min pre-incubation; fluorescence ex 480/em 540; read-out: rhLp-PLA2 (pIC50) (converted)
T1 sequence (Q13093 22-441): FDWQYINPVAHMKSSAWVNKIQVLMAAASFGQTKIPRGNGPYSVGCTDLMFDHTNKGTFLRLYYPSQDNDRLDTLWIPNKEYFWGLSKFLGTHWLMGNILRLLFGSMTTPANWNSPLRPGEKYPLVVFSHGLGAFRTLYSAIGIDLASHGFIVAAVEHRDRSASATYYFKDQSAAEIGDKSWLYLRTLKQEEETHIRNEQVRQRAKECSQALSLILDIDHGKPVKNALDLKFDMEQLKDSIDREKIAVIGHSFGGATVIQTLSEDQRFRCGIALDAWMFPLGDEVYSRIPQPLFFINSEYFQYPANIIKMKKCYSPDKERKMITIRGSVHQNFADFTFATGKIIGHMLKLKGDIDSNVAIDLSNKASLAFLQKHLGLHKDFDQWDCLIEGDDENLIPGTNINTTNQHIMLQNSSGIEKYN
Description: (1) Recombinant Human Lp-PLA2 (rhLp-PLA2) Assay (Also Known as PED6 Assay)
PED6 is a fluorescently labeled phospholipid that can be purchased directly from Invitogene or Molecular Probes. There is a fluorescence-quenching p-nitrophenyl group on the Sn3 position, and a Bodipy fluorescein (FL) group on the sn2 position. Once it is cleaved by the Lp-PLA2 enzyme, the FL group is released, resulting in enhanced fluorescence.
Assay method: The compound to be tested (as shown in Table 1) was mixed with DMSO solution at a volume ratio of 1:3, diluted to prepare a source plate of a 384-well microplate. Then 0.01 μl of the compound was transferred via an ECHO liquid dispenser from the source plate to a 384-well Greiner 784076 plate, and 5 microliters of a buffer composed of 50 mM HEPES, pH7.4, 150 mM NaCl, 1 mM CHAPS (the buffer solution contains Recombinant human Lp-PLA2 enzyme at a concentration of 4 nM or 110 pM) was added to each well on the plate. The plate was centrifuged at 500 rpm for 10 seconds. After 30 minutes of pre-incubation, 5 microliters of the above buffer solution was added to a 384-well Greiner784076 plate, and the plate was centrifuged at 500 rpm for 10 seconds.

[2] = target: T2, Lp-PLA2 enzyme in human plasma (Homo sapiens, UniProt Q13093); assay: Human plasma Lp-PLA2 assay (Thio-PAF assay); assay type: biochemical; conditions: mixed human plasma; 2-thio-PAF substrate with CPM; 30 min pre-incubation; fluorescence ex 380/em 485; read-out: Thio-PAF (pIC50) (converted)
T2 construct: from tissue; host or cells: pooled (mixed) human plasma
T2 sequence (Q13093 22-441): T1 sequence (Q13093 22-441)
Method: (2) Human Plasma Lp-PLA2 Assay (Also Known as Thio-PAF Assay)
The human plasma assay was conducted using the sulphatide analog of PAF (phosphatidylcholine), which is hydrolyzed to produce phospholipids containing free sulfhydryl groups, subjected to Michael addition with CPM to generate fluorescence-enhancing maleimide.
Continuous quantitative analysis of thiol could be conducted by detecting the fluorescence intensity. This assay can be used to detect the inhibitory activity of the Lp-PLA2 inhibitor on the Lp-PLA2 enzyme in human plasma.
Assay Method: The compound to be tested (as shown in Table 2) was mixed with a DMSO solution in a volume ratio of (1:3), and diluted to prepare a source plate of a 384-well microplate. Then 0.01 μl of the compound was transferred via an ECHO liquid dispenser from the source plate to a 384-well Greiner 784076 low-volume plate, and 8 μl of pre-aliquoted and frozen mixed human plasma was added. The plate was centrifuged at 500 rpm for 10 seconds. After a 30 min pre-incubation, 2 μl of a substrate solution, and containing 2.5 mM 2-thio-PAF (a solution in ethanol), 32 μM CPM (a solution in DMSO) and a buffer of 3.2 mM N-ethylmaleimide (NEM) (a buffer solution consisting of 50 mM HEPES, pH7.4, 150 mM NaCl, 1 mM CHAPS) was added by a BRAVO liquid handling station to a 384-well Greiner 784076 low-volume plate. After 2 min, the reaction was quenched with 5 μl of 5% trifluoroacetic acid. After the plate was incubated at room temperature for 40 min in a dark place, the fluorescence intensity was read at ex 380/em 485 with an Envision microplate reader, and the XL fitting model in Excel was used to perform the curve analysis and QC analysis to calculate pIC50.

Compound	IC50 [1] [nM]	IC50 [2] [nM]
O=c1nc(OCc2cc(F)c(Oc3ccc(OC(F)(F)F)c(Cl)c3)c(F)c2)c2c3n1CCN3CCO2 [Compound 12]	0.0794	15.8
O=c1nc(OCc2cc(F)c(Oc3ccc(C(F)(F)F)c(Cl)c3)c(F)c2)c2c3n1CCN3CCO2 [Compound 11]	0.1	10
O=c1nc(OCc2cc(F)c(Oc3ccc(C(F)(F)F)nc3)c(F)c2)c2c3n1CCCN3CCO2 [Compound 16]	0.0794	10
O=c1nc(OCc2cc(F)c(F)c(F)c2)c2c3n1CCCN3CCO2 [Compound 19]	3.98	63.1
O=c1nc(OCc2cc(F)c(Oc3ccc(C(F)(F)F)nc3)c(F)c2)c2c3n1CCN3CCO2 [Compound 5]	0.2	20
Cc1ncc(Oc2c(F)cc(COc3nc(=O)n4c5c3OCCN5CC4)cc2F)cn1 [Compound 8]	1	39.8
O=c1nc(OCc2cc(F)c(Oc3ccc(Cl)c(C(F)(F)F)c3)c(F)c2)c2c3n1CCN3CCO2 [Compound 13]	0.158	12.6
O=c1nc(OCc2cc(F)c(F)c(F)c2)c2c3n1CCN3CCO2 [Compound 3]	3.16	50.1
O=c1nc(OCc2cc(F)c(Oc3ccc(C(F)(F)F)cc3)c(F)c2)c2c3n1CCN3CCO2 [Compound 9]	0.158	10
Cc1ccc(Oc2c(F)cc(COc3nc(=O)n4c5c3OCCN5CC4)cc2F)cn1 [Compound 7]	0.251	20
O=c1nc(OCc2cc(F)c(Oc3ccnc(C(F)(F)F)c3)c(F)c2)c2c3n1CCCN3CCO2 [Compound 15]	0.0631	7.94
O=c1nc(OCc2cc(F)c(Oc3ccnc(C(F)(F)F)c3)c(F)c2)c2c3n1CCN3CCO2 [Compound 4]	0.126	12.6
Cc1ccc(Oc2c(F)cc(COc3nc(=O)n4c5c3OCCN5CCC4)cc2F)cn1 [Compound 17]	0.0501	7.94
O=c1nc(OCc2cccc(F)c2F)c2c3n1CCCN3CCO2 [Compound 18]	10	126
O=c1nc(OCc2cc(F)c(F)cc2F)c2c3n1CCN3CCO2 [Compound 1]	15.8	316
Cc1cc(Oc2c(F)cc(COc3nc(=O)n4c5c3OCCN5CC4)cc2F)ccc1Cl [Compound 14]	0.2	15.8
Cc1cc(Oc2c(F)cc(COc3nc(=O)n4c5c3OCCN5CC4)cc2F)ccn1 [Compound 6]	0.158	15.8
O=c1nc(OCc2cccc(F)c2F)c2c3n1CCN3CCO2 [Compound 2]	10	158
O=c1nc(OCc2cc(F)c(Oc3cccc(OC(F)(F)F)c3)c(F)c2)c2c3n1CCN3CCO2 [Compound 10]	0.2	15.8
